Values quoted from earlier work in patent US20190208766A1, “COMPOSITION FOR THE CONSERVATION/FIXATION OF BIOLOGICAL MATERIAL” (priority 2016, published 2019).

Test system: airways
Settings: in vivo

C=O [formaldehyde]
concentration causing sense of suffocation: greater than 10 ppm
exposure that can lead to pulmonary edema: greater than 20 ppm
